Laboratory results reported in US20260258077A1, “PROTEIN FOLDING AGENT, COMPOUND, PROTEIN FOLDING METHOD, PHARMACEUTICAL COMPOSITION, AND AGENT FOR SUPPRESSING CYTOTOXICITY BY TRANSITION METAL” (National University Corporation Tokyo University of …, priority 2023, published 2026).

Columns and labels:
HeLa cells = assay: Suppressive effect on cytotoxicity of Cu(II) ions (Cell Counting Kit-8); assay type: cell-based; conditions: 100 μM Cu(II); single oxidized agent added four hours later; read 24 hours after CuCl2 (FIG. 15)
Protocol: HeLa cells were seeded in a 96-well plate at 5,000 cells/well and cultured at 37° C. in a 5% CO2 environment for 24 hours. Subsequently, a CuCl2 aqueous solution was added thereto to obtain 100 μM Cu(II). Four hours later, a mixed solution (10:1) of a certain amount of the compound (A-1-1-1) and the compound (B-1-1-1), or a mixed solution (10:1) of oxidized glutathione (GSSG) and reduced glutathione (GSH) was added. 24 hours after the addition of CuCl2, a Cell Counting Kit-8 solution was added thereto. Two hours later, an absorbance at 450 nm was measured to estimate the cell viability.
HeLa cells were seeded in a 96-well plate at 5,000 cells/well and cultured at 37° C. in a 5% CO2 environment for 24 hours. Subsequently, a CuCl2 aqueous solution was added thereto to obtain 100 μM Cu(II). Four hours later, a certain amount of the compound (B-1-1-1) solution or oxidized glutathione (GSSG) solution was added thereto. 24 hours after the addition of CuCl2, a Cell Counting Kit-8 solution was added thereto. Two hours later, the absorbance at 450 nm was measured to estimate the cell viability.

[1] = target: T1, reduced and denatured Bovine Pancreatic Trypsin Inhibitor (BPTI) (Bos taurus, UniProt P00974); assay: Protein folding test of reduced and denatured BPTI (reverse-phase HPLC); assay type: biochemical; conditions: for formation proportion of native structural BPTI in the presence of Zn(II) ions: 90 μM Zn(II) (ZnSO4), 90 μM (B-1-2-1) or 900 μM GSSG alone, 1 hour (FIG. 25)
T1 construct: purchased Pro-Spec-Tany TechnoGene Ltd. (Rehovot, Israel)
Protocol: Bovine Pancreatic Trypsin Inhibitor (BPTI) having three disulfide bonds in the molecule was used as a model protein for analyzing a folding process.
BPTI (10 mg) was dissolved in 0.1 M Tris-HCl (pH: 8.0, 1.0 mL) containing 30 mM 1,4-dithiothreitol and 8 M urea, incubated at 50° C. for 3 hours, and purified by reverse-phase HPLC. HPLC purification was carried out using a PU-4180 pump and a UV-4075 detector manufactured by JASCO Corporation (Tokyo, Japan), and an InertSustain C18 column (4.6 mm×250 mm) manufactured by GL Sciences Inc. (Tokyo, Japan) at a flow rate of 1.0 mL·min^−1. The collected fractions were freeze-dried, and the obtained powder was stored at −30° C.
For analysis of the folding process by reverse-phase HPLC, Primaide HPLC system manufactured by Hitachi High-Tech Corporation (Tokyo, Japan) and TSKgel Protein C4-300 column (§ 4.6×150 mm) manufactured by Tosoh Corporation (Tokyo, Japan) were used. […]
In the presence of 200 μM of the compound (B-1-1-1) and 1.0 mM of the compound (A-1-1-1), reduced and denatured BPTI (30 μM) was dissolved in a Tris-HCl buffer (50 mM Tris-HCl, 300 mM NaCl, pH: 7.5) and incubated at 30° C. Reaction solutions (200 μL) collected at 0 minutes, 1 minute, 5 minutes, 10 minutes, 30 minutes, and 60 minutes after the start of the reaction were mixed with an equivalent amount of 1 M hydrochloric acid, and analyzed by reverse-phase HPLC. Tracing was performed at a flow rate of 1.0 mL·min^−1 and a wavelength of 229 nm, and a linear gradient was applied to the elution solvent ratio during measurement (solvent A: water containing 0.05% TFA, solvent B: acetonitrile containing 0.05% TFA; the amount of solvent A: 95% at 0 minutes, 80% at 15 minutes, 65% at 45 minutes). […]
In the presence of 200 μM oxidized glutathione (GSSG) and 1.0 mM reduced glutathione (GSH), or in the presence of 200 μM of the compound (B-1-1-1) and 1.0 mM of the compound (A-1-1-1), ZnSO4 and reduced and denatured BPTI (30 μM) were dissolved in a Tris-HCl buffer (50 mM Tris-HCl, 300 mM NaCl, pH: 7.5) and incubated at 30° C. The reaction solution (200 μL) 1 hour after the start of the reaction was mixed with an equivalent amount of 1 M hydrochloric acid and analyzed by reverse-phase HPLC. Tracing was performed at a flow rate of 1.0 mL·min^−1 and a wavelength of 229 nm, and a linear gradient was applied to the elution solvent ratio during measurement (solvent A: water containing 0.05% TFA, solvent B: acetonitrile containing 0.05% TFA; the amount of solvent A: 95% at 0 minutes, 80% at 15 minutes, 65% at 45 minutes).
In the presence of 90 μM of the compound (B-1-2-1) and 900 μM of the compound (A-1-2-1), or in the presence of 90 μM of oxidized glutathione […] and 900 μM of reduced glutathione […], reduced and denatured BPTI (30 μM) was dissolved in a Tris-HCl buffer (50 mM Tris-HCl, 300 mM NaCl, pH: 7.5) and incubated at 30° C. The reaction solution (200 μL) 1 hour after the start of the reaction was mixed with an equivalent amount of 1 M hydrochloric acid and analyzed by reverse-phase HPLC. Tracing was performed at a flow rate of 1.0 mL·min^−1 and a wavelength of 229 nm, and a linear gradient was applied to the elution solvent ratio during measurement (solvent A: water containing 0.05% TFA, solvent B: acetonitrile containing 0.05% TFA; the amount of solvent A: 95% at 0 minutes, 80% at 15 minutes, 65% at 45 minutes).
In the presence of 90 μM of the compound (B-1-2-1), 90 μM of Zn(II) ion (ZnSO4) and reduced and denatured BPTI (30 μM) were dissolved in a Tris-HCl buffer (50 mM Tris-HCl, 300 mM NaCl, pH: 7.5) and incubated at 30° C. The reaction solution (200 μL) 1 hour after the start of the reaction was mixed with an equivalent amount of 1 M hydrochloric acid and analyzed by reverse-phase HPLC. […]

C1CNCCNCCCN(CCSSCCN2CCCNCCNCCCNCC2)CCNC1 [compound (B-1-1-1)]
improvement of cell viability of HeLa cells exposed to Cu(II) ions (HeLa cells): greatly improved the viability of HeLa cells

C1CNCCN(CCSSCCN2CCNCCNCC2)CCN1 [compound (B-1-2-1)]
formation of native structural BPTI in the absence of Zn(II) ions ([1]; 90 μM (B-1-2-1) alone, Zn(II) 0 μM, 1 hour (FIG. 23)): native structural BPTI was formed even at a Zn(II) ion concentration of 0 μM
formation proportion of native structural BPTI with increasing Zn(II) ion concentration ([1]; 90 μM (B-1-2-1) alone, ZnSO4, 1 hour, 30° C. (FIG. 23)): formation proportion of native structural BPTI increased as the Zn(II) ion concentration increased
formation proportion of native structural BPTI in the presence of Zn(II) ions [1]: formation proportion of native structural BPTI was larger in the presence of Zn(II) ions than in the absence of Zn(II) ions

C1CN2CCSSCCN(CCN1)CC2 [compound (B-2-1-1)]
protein folding promotion effect of a catalytic amount ([1]; 6 μM (B-2-1-1), NiCl2 0 μM, BPTI 30 μM (FIG. 31)): had the protein folding promotion effect
protein folding promotion effect of a catalytic amount in the presence of Ni(II) ions ([1]; 6 μM (B-2-1-1), NiCl2 1 μM, BPTI 30 μM (FIG. 32)): significantly improved as compared with the absence of Ni(II) ions
protein folding promotion effect of a catalytic amount in the presence of Cu(II) ions ([1]; 30 μM (B-2-1-1), CuCl2 5 μM, BPTI 30 μM (FIG. 33)): significantly improved as compared with the absence of Cu(II) ions
formation proportion of native structural BPTI with increasing Cu(II) ion concentration ([1]; 90 μM (B-2-1-1), CuCl2, 1 hour (FIG. 29)): formation proportion of native structural BPTI increased as the Cu(II) ion concentration increased
formation proportion of native structural BPTI with increasing Ni(II) ion concentration ([1]; 90 μM (B-2-1-1), NiCl2, 1 hour (FIG. 30)): formation proportion of native structural BPTI increased as the Ni(II) ion concentration increased
folding versus theoretical yield of a stoichiometric reaction ([1]; catalytic amount of (B-2-1-1), presence of Ni(II) ions or Cu(II) ions): enhancement of folding that greatly exceeded the theoretical yield expected for a stoichiometric reaction
protein folding promotion effect ([1]; no metal ion, 90 μM agent, 1 hour, 30° C. (FIG. 28)): protein folding promotion effect comparable to that of GSSG

oxidized glutathione [GSSG, reference compound]
formation proportion of native structural BPTI in the presence of Zn(II) ions [1]: proteins aggregated and folding hardly proceeded
improvement of cell viability of HeLa cells exposed to Cu(II) ions (HeLa cells): had little effect on improving the cell viability of HeLa cells
